This note sets out measurements from ChEMBL document CHEMBL3046639, “Syntheses of tetrahydronaphthalenes. Part II” (Tetrahedron, 1994).

This test can be described thus: Pre-emergence herbicidal activity against narrowleaf weed at 0.5 lb/acre. Format: functional.

Each structure is given as a SMILES string. Calls of active or inactive are those of the source. How the calls were made is not given here.

On to `CCC(CC)Nc1c([N+](=O)[O-])cc2c(c1[N+](=O)[O-])CCCC21CCCCC1`, for which the result was inactive.
Next, `CCSc1c([N+](=O)[O-])cc2c(c1[N+](=O)[O-])CCCC2(C)C`: “inactive”; `Cc1cc(C)c2c(c1)C(C)(C)CCC2`: “inactive”.
As to `CCC(CC)Nc1c([N+](=O)[O-])cc2c(c1[N+](=O)[O-])CCCC2(C)C`, the outcome was Active.
In the case of `Cc1cc2c(c(C)c1C(=O)N(C)C)CCCC2(C)C`, the outcome was inactive.
As for `CC1(C)CCCc2c1cc([N+](=O)[O-])c(F)c2[N+](=O)[O-]`, the outcome was inactive.
In the case of `CC1(C)CCCc2c(F)cc(F)cc21`, the result was inactive.
To `CCC(CC)Nc1c([N+](=O)[O-])cc2c(c1[N+](=O)[O-])CCCC2C` (configuration not stated) belongs “inactive”; to `CC(C)c1cc(C(C)C)c2c(c1)C(C)(C)CCC2`, “inactive”; to `COc1c2c(cc(F)c1C(C)=O)C(C)(C)CCC2`, “inactive”.
Next, `CNc1c([N+](=O)[O-])cc2c(c1[N+](=O)[O-])CCCC2(C)C`: “inactive”.
On to `CN(C)c1c([N+](=O)[O-])cc2c(c1[N+](=O)[O-])CCCC2(C)C`, for which the outcome was inactive.
`CN(C)c1c([N+](=O)[O-])cc([N+](=O)[O-])c2c1C(C)(C)CCC2`: the result was inactive.
As for `O=[N+]([O-])c1cc2c(c([N+](=O)[O-])c1F)CCCC21CCCCC1`, the result was inactive.
Turning to `CCC(=O)c1c(C)cc2c(c1C)CCCC2(C)C`, the outcome was inactive.
As to `CN(C)c1c([N+](=O)[O-])cc2c(c1[N+](=O)[O-])CCCC21CCCCC1`, the outcome was inactive.
For the molecule `COc1c([N+](=O)[O-])cc2c(c1[N+](=O)[O-])CCCC2(C)C(C)C` (configuration not stated), the outcome was inactive.
Regarding `COc1c([N+](=O)[O-])cc([N+](=O)[O-])c2c1C(C)(C)CCC2`, the outcome was inactive.
As for `Cc1cc2c(c(C)c1C(=O)C(Br)(Br)Br)CCCC2(C)C`, the result was inactive.
Next, `CCN(CC)c1c([N+](=O)[O-])cc2c(c1[N+](=O)[O-])CCCC2(C)C`: “inactive”.
As to `COc1ccc(C(C)=O)c2c1C(C)(C)CCC2`, the result was inactive.
To `CCCC1(CCC)CCCc2c1cc([N+](=O)[O-])c(NC(CC)CC)c2[N+](=O)[O-]` belongs “inactive”.
For the molecule `COc1cc2c(cc1C(C)=O)C(C)(C)CCC2`, the result was inactive.
Next, `CC(C)C1(C)CCCc2c1cc([N+](=O)[O-])c(N(C)C)c2[N+](=O)[O-]` (configuration not stated): “inactive”; `CC(=O)c1c(C)cc2c(c1C)CCCC2(C)C`: “inactive”; `COC(=O)c1ccc(OC)c2c1CCCC2(C)C`: “inactive”.
Take `CC1(C)CCCc2cc(F)c([N+](=O)[O-])cc21`: the result was inactive.
`CCNc1c([N+](=O)[O-])cc2c(c1[N+](=O)[O-])CCCC2(C)C`: the outcome was inactive.
Take `CCCC1(CCC)CCCc2cc(N(C)C)c([N+](=O)[O-])cc21`: the outcome was inactive.
To `CC1(C)CCCc2c([N+](=O)[O-])cc([N+](=O)[O-])c(F)c21` belongs “inactive”.
Regarding `CCS(=O)(=O)c1c([N+](=O)[O-])cc2c(c1[N+](=O)[O-])CCCC2(C)C`, the outcome was inactive.
Next, `CC1CCCc2c1cc([N+](=O)[O-])c(F)c2[N+](=O)[O-]` (configuration not stated): “inactive”; `CN(C)c1cc2c(cc1[N+](=O)[O-])C(C)(C)CCC2`: “inactive”; `CC1CCCc2cc(F)ccc21` (configuration not stated): “inactive”.
Regarding `COc1cc2c(cc1C(=O)O)C(C)(C)CCC2`, the outcome was inactive.
`Cc1cc2c(c(C)c1C(=O)O)CCCC2(C)C`: the outcome was inactive.
For the molecule `Fc1ccc2c(c1)CCCC21CCCCC1`, the outcome was inactive.
As to `CCCC1(CCC)CCCc2c1cc([N+](=O)[O-])c(N(C)C)c2[N+](=O)[O-]`, the outcome was inactive.
`CCOC(=O)c1c(C)cc2c(c1C)CCCC2(C)C`: the outcome was inactive.
As to `COC(=O)c1cc2c(cc1OC)CCCC2(C)C`, the result was inactive.
For `CC(C)C1(C)CCCc2cc(F)ccc21` (configuration not stated), the result was inactive.
In the case of `CCCCOC(=O)c1c(C)cc2c(c1C)CCCC2(C)C`, the result was inactive.
Turning to `COc1c([N+](=O)[O-])cc2c(c1[N+](=O)[O-])CCCC2(C)C`, the outcome was inactive.
To `COc1cc(OC)c2c(c1)C(C)(C)CCC2` belongs “inactive”.
Turning to `CC(C)C1(C)CCCc2c1cc([N+](=O)[O-])c(F)c2[N+](=O)[O-]` (configuration not stated), the outcome was inactive.
On to `COc1ccc(C(=O)O)c2c1C(C)(C)CCC2`, for which the result was inactive.
As to `COC(=O)c1c(C)cc2c(c1C)CCCC2(C)C`, the outcome was Active.
`CCC(CC)Nc1c([N+](=O)[O-])cc2c(c1[N+](=O)[O-])CCCC2(C)C(C)C` (configuration not stated): the result was inactive.
On to `CCCC1(CCC)CCCc2c1cc([N+](=O)[O-])c(F)c2[N+](=O)[O-]`, for which the result was inactive.
On to `CCCC1(CCC)CCCc2cc(F)ccc21`, for which the outcome was inactive.
In the case of `CCCN(CCC)c1c([N+](=O)[O-])cc2c(c1[N+](=O)[O-])CCCC2(C)C`, the outcome was inactive.
In the case of `CC(=O)c1c(F)cc2c(c1F)CCCC2(C)C`, the result was inactive.
